Data as given in patent EP2735303A1, “Hair growth compositions and methods” (Pilosciences, priority 2012, dated 2014).

Experiments:
[1] = test system: isolated human hair follicles; assay: Hair growth of isolated human hair follicles maintained in vitro (morphometric study); format: cell-based; conditions: versus no application and Minoxidil 2% 10 µmol; application 2h00 at 37°C; length at D0, D4, D6, D8
Experimental: Hair growth is measured using standard morphometric studies on isolated human hair follicles maintained in vitro (Philpott, 1999). Hair follicles are micro-dissected in a human scalp and maintained in a culture medium. Hair follicles in anagen phase are selected for the study. Each tested group is composed of 10-12 hair follicles.

[2] = test system: human skin explants; assay: Morphology of the hair follicle in human skin explants ex vivo after topical application (histology); format: cell-based; parameters: key to Upper part (quotation of morphological alterations) / Sebaceous gland (quotation of morphological alterations): -: no alteration; +: weak; ++: moderate; +++: significant; ++++: very significant; +++++: strong
Experimental: Anti-HGP antibodies were produced (see example A) or obtained from commercially available sources, and investigated for their ability to inhibit body hair growth ex vivo using human skin explants.
The activity of the antibodies was assessed based on their effect on the morphology and growth of the body hair.
The activity of keratinase A (Sigma) was investigated in parallel. Eflornithin (Calbiochem) was used as a reference.
40 explants of a diameter of about 11 mm (± 1 mm) were obtained by abdominoplasty from 2 men. The explants were placed in survival in the BEM (BIO-EC's Explants Medium) at 37° C in a humid atmosphere enriched with 5% CO2.
The treatment was performed at D0, D1, D4, D6 and D8 by topical application of 5 µl of diluted antibody used at final concentrations of 30 to 100 µg/mL in PBS. Eflornithin was used at a concentration of 100 mg/mL and keratinase at 20 mg/mL. A negative control experiment was performed using PBS only.
At D0, T0 lot explants were removed and cut in half. Half was fixed in buffered formalin and the other half was frozen at -80 ° C. A D8, 2 explants from each batch were taken and treated in the same manner.
After 24 hours of fixation in buffered formalin, the samples were dried and impregnated with paraffin using an automatic dehydration Leica TP 1010 according to the procedure MO-H-149, according to our procedure using a station coating Leica EG 1160. Sections of 5 microns were performed, using a microtome kind Minot, Leica RM 2125 and mounted on silanized glass slides Superfrost ® plus. Microscopic observations were performed by microscopy optical transmission. The shots were taken with a Leica Orthoplan DMLB or with a digital camera Olympus DP72 driven software acquisition and archiving Olympus CellD. The morphology was examined on paraffin sections stained with Masson's trichrome Goldner variant.

NCCC[C@](N)(C(=O)O)C(F)F [R1, α-difluoromethylornithine]
Hair growth compared to Control Group 0 and to Control Group M [1]: significant hair growth retardation | Bulb: morphology ([2]; D8, topical application): comparable to that observed in the untreated group D8 | Lower part of the hair follicle: morphology ([2]; D8, topical application): very slight cell alterations | Midsection, sebaceous glands: morphology of inner and outer root sheaths ([2]; D8, topical application): clear cellular alterations | Upper part, near the infundibulum: morphology of the epithelial sheaths ([2]; D8, topical application): sharp cellular alterations | morphology of the epidermis ([2]; D8, topical application): slightly altered with a slight spongiosis | Sebaceous gland (quotation of morphological alterations) ([2]; sebaceous gland region of the hair follicle, topical application D0, D1, D4, D6, D8, antibodies 30 to 100 µg/mL in PBS, Eflornithin 100 mg/mL, keratinase 20 mg/mL, D8): ++++ | Upper part (quotation of morphological alterations) ([2]; upper part of the hair follicle near the infundibulum, topical application D0, D1, D4, D6, D8, antibodies 30 to 100 µg/mL in PBS, Eflornithin 100 mg/mL, keratinase 20 mg/mL, D8): ++++
